The values below come from PMC4729491, “The Cellular Thioredoxin-1/Thioredoxin Reductase-1 Driven Oxidoreduction Represents a Chemotherapeutic Target for HIV-1 Entry Inhibition” (PLoS ONE, 2016).

Data set [1] concerns the target PDI (Homo sapiens, UniProt P07237). The data set is described as follows: SPR binding to immobilized PDI. Conditions: 10, 50 and 250 μM. On the procedure:
SPR analysis was performed to evaluate binding of TE-2 to immobilized recombinant TrxR1, PDI, gp120, gp41 and sCD4. Therefore, these ligands were immobilized on a CM5 sensor chip (GE Healthcare, Uppsala, Sweden) using standard amine coupling in the presence of 10 mM sodium acetate, pH 5. A high ligand-density chip was created, with ligand densities of 6759, 5004, 4119, 2900 and 5569 RU, respectively. A reference flow cell was used to control for non-specific binding and refractive index changes. All interactions were studied at 25°C on a Biacore T200 instrument (GE Healthcare, Uppsala, Sweden) in HBS-P (10 mM HEPES, 150 mM NaCl and 0.05% surfactant P20; pH 7.4) supplemented with 10 mM CaCl2 and 5% DMSO. TE-2 was tested at the concentrations 10, 50 and 250 μM. Samples were injected during 2 minutes at a flow rate of 30 μl/min, followed by a dissociation phase of 2 minutes. Each injection was followed by a regeneration step with 50 mM NaOH (injected during 10 seconds at a flow rate of 100 μl/min).

Data set [2] deals with HuT-78/HIV-1 and Sup-T1 cells. In words: cells. The class given is cell-based. The conditions noted are these: cocultures of HuT-78/HIV-1 and Sup-T1 cells, ~24 hours; read-out: IC50 inhibition of syncytia formation. As for the experimental part: Persistently infected HuT-78/HIV-1 cells were thoroughly washed to eliminate free virions. Next, 1 x 10^5 HuT-78/HIV-1 cells were co-cultivated with 1 x 10^5 Sup-T1 cells in 96-well plates (200 μl/well) during 20 h at 37°C, in the presence or absence of a serial dilution of compound. Afterwards, the formation of syncytia was evaluated microscopically. The EC50 was defined as the compound concentration required to suppress syncytia formation by 50%.

Data set [3] concerns HIV-1(IIIB). In words: microbe, parasite or virus in culture. The class given is cell-based. Conditions: CEM cells. As for the experimental part:
(§1) To study the antiviral activity in transformed cells, CEM cells were suspended in fresh culture medium and infected with HIV-1(IIIB) or HIV-2(ROD) at 100 x CCID50 (cell culture infective dose 50%) per ml of cell suspension. Infected cell suspension (100 μl; 3 x 10^5 cells/ml) was transferred to a 96-well microplate, mixed with 100 μl of the appropriate dilutions of compounds, and further incubated at 37°C. After 4 days, giant cell formation was recorded microscopically and the number of giant cells was estimated microscopically as percentage of the number of giant cells present in the non-treated virus-infected cell cultures.

In data set [4] the test system is HIV-1(HE). The data set is described as follows: Antiviral activity in PHA-stimulated PBMCs (p24 ELISA), HIV-1(HE). The class given is cell-based. The conditions noted are these: PHA-stimulated PBMCs; mean ± SD; read-out: EC50 HIV-1 (HE). On the procedure:
(§2) To test the antiviral activity in fresh, PHA-stimulated PBMCs, an experiment was performed as previously described. Briefly, the cells were preincubated with HIV-1(IIIB), HIV-1(BaL) or HIV-1(HE) for 1 h at 37°C, using a viral load of 1000 x CCID50 per ml. Then, cell suspensions containing virus and 2 x 10^5 PBMCs were seeded in a 96-well microtiter plate and a serial dilution of compound was added, in a total volume of 200 μl. After 4 days, the cells were passaged and fresh culture medium, containing IL-2 and compound, was added. Three days later, cellular supernatants were harvested and viral replication in the presence of the compounds was quantified using a p24 enzyme-linked immunosorbent assay (ELISA) (Perkin Elmer, Brussels, Belgium). The half maximal effective concentration (EC50) was defined as the compound concentration that is required to block viral replication by 50%.
In general terms: An ELISA detects its analyte on a solid surface through an enzyme-linked reagent.

Data set [5] relates to HIV-1(IIIB). Type of data set: cell-based. The conditions noted are these: MT-4 cells, p24 ELISA at 31 h; TE-2 at 50 μM. On the procedure:
Two time-of-drug-addition (TOA) experiments were performed and adopted from previously reported methods. Briefly, MT-4 cells were infected with HIV-1(IIIB) at a multiplicity of infection of 0.5. Following a 1 hour adsorption period, cells were washed, distributed in a 96-well tray at 100,000 cells per 200 μl per well and incubated at 37°C.
For the first experiment, test compounds were added to the infected cell cultures at different time points (i.e. 0, 1, 2, 3, 4, 5, 6, 7, 8, 9, 24, and 25 h) after the start of infection.
In a second experiment, the resolution of the assay was increased by evaluating early time points in more detail. Therefore, the test compounds were added to the infected cell cultures at the following time points after the start of infection: 0, 15, 30, 45, 100 and 180 min; and 24 as well as 25 h.
Product added at time points 0, 15, 30 and 45 min was present at the start of the viral infection and washed away after 1 hour. After washing, fresh product was added to maintain viral suppression throughout the remaining of the experiment.
HIV-1 production was determined at 31 h post infection via a p24 ELISA (Perkin Elmer, Brussels, Belgium).

The conditions of data set [6]: previously known structural properties ref 20-22; cited from earlier work.
The test system of data set [7] is PHA-stimulated PBMCs. In words: Toxicity in PHA-stimulated PBMCs (trypan blue cell counting). Type of data set: cell-based, human. Conditions: proliferation of seven-day drug-exposed PHA-stimulated PBMCs; mean ± SD; read-out: IC50 PBMC. On the procedure: A similar experiment was performed to study the toxicity of the compounds in fresh, PHA-stimulated, PBMCs. Mock-infected PBMCs (2 x 10^5 cells) were exposed to a serial dilution of compound, in a total volume of 200 μl. Cells were passaged after 4 days. Cell survival and proliferation was assessed at day 7 using trypan blue-based cell counting with the Countess Automated Cell Counter (Invitrogen, Ghent, Belgium). The IC50 was defined as the concentration of the compound that inhibited cell proliferation by 50%.

Data set [8] concerns HIV-1(IIIB). The data set is described as follows: Antiviral activity in PHA-stimulated PBMCs (p24 ELISA), HIV-1(IIIB). Type of data set: cell-based. Conditions: PHA-stimulated PBMCs; mean ± SD; read-out: EC50 HIV-1 (IIIB). As for the experimental part: as §2
In data set [9] the test system is HIV-2(ROD). In words: Inhibition of HIV-2(ROD)-induced giant cell formation in CEM cell cultures. The class given is cell-based. The conditions noted are these: CEM cells. As for the experimental part:
as §1

Several values for one entry are separate records, joined by “and”; a condition that tells them apart may be missing. Equal entries are not always repeated. Entries after “also recorded” stand apart in the source; their conditions may differ.

Chain of PDI (P07237 18-508, species assumed): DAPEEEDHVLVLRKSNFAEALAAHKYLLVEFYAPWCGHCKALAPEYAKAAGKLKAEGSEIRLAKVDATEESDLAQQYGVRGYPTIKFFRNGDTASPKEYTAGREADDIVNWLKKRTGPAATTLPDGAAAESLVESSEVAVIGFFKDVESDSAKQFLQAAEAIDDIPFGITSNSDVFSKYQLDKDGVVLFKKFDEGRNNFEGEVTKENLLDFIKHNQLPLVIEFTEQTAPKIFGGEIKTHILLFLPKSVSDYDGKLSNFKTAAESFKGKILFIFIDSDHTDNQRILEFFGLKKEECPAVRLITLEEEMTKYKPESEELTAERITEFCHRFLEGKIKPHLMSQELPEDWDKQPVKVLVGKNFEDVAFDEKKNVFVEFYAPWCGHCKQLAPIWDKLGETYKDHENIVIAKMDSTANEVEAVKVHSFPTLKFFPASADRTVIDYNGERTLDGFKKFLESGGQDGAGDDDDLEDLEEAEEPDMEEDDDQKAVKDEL

Take “6-(butyltelluro)-6-deoxy-β-cyclodextrin [TE-2]”: the “SPR binding to PDI” value in data set [1] is given as “dose-dependently interact with PDI”. The IC50 is greater than 250 µM in data set [2] and 54 ± 16 µM in data set [7]. Besides, the “Ratio IC50/EC50 HIV-1 (CEM)” value in [3] came to 227. Also, the EC50 in data set [3] (concentration required to protect against cytopathogenicity of HIV by 50%, mean ± SD, read-out: EC50 HIV-1 (IIIB)) came to 1.1 ± 0.25 µM; in [4], 6.6 ± 4.2 µM; in [8], 15 ± 7 µM; in [9] (concentration required to protect against cytopathogenicity of HIV by 50%, mean ± SD, read-out: EC50 HIV-2 (ROD)), 1.5 ± 0.52 µM. In data set [3] (over HIV-1 and HIV-2), the “antiviral selectivity SI = IC50/EC50” value is 167–227 and > 100. In addition, the time-of-drug-addition profile result in data set [5] is listed as “mostly lost when added at t = 1 h after infection; also recorded: profile resembling that of the fusion inhibitor enfuvirtide (T-20)”. Further, in data set [6], the Hydrophobicity entry is on record as “Hydrophilic”. Further, the “Ratio IC50/EC50 HIV-2 (CEM)” value in data set [9] is given as 167.

The IC50 is the point on the concentration scale where inhibition reaches its midpoint. As a reminder, the EC50 is the midpoint of the concentration-response curve.
